# In PMC4847944 (Bioorganic & medicinal chemistry, 2014):
# Like-named read-outs stand apart in the source and are kept apart here. Marks after values point to notes of the source that are not given here.
# Tests used:
# [1] = system: MDA-kb2 cell line; assay: Cytotoxicity in MDA-kb2 cells
# [2] = Solubility in phosphate buffer and cell culture media; assay type: physicochemical; conditions: highest concentration tested per footnote f
# [3] = system: MDA-kb2 cell line
Compound,"MDA-kb2 cell culture LC50 ([1]; concentration at which cell viability was reduced by 50%, Promega Cell Titer Glo kit)",Cytotoxicity in MDA-kb2 cells (result in words) ([1]; same conditions as the reporter assay),Solubility limit in cell culture media [2],MDA-kb2 cell culture LC50 [3],Cytotoxicity in MDA-kb2 cells (result in words) [3]
"CO[C@H]1[C@H](OC(=O)c2ccc(C)[nH]2)[C@H](O)[C@@H](Oc2ccc3c(O)c(NC(=O)c4c[nH]c(C(=O)Nc5c(O)c6ccc(O[C@H]7OC(C)(C)[C@@H](OC)[C@H](OC(=O)c8ccc(C)[nH]8)[C@@H]7O)c(C)c6oc5=O)c4C)c(=O)oc3c2C)OC1(C)C [Coumermycin A1, coumermycin A1]",19.1 ± 9.1 µM,some accompanying toxicity,–,–,–
"COC1=C2C[C@@H](C)C[C@H](OC)[C@H](O)[C@@H](C)/C=C(\C)[C@H](OC(N)=O)[C@@H](OC)/C=C\C=C(/C)C(=O)NC(=CC1=O)C2=O [Geldanamycin, geldanamycin]",–,–,>2^f μM,>2^f μM,–
"CO[C@@H]1[C@@H](OC(N)=O)[C@@H](O)[C@H](Oc2ccc3c(O)c(NC(=O)c4ccc(O)c(CC=C(C)C)c4)c(=O)oc3c2C)OC1(C)C [Novobiocin, novobiocin]",–,–,–,690 ± 188 µM,some accompanying toxicity
